Laboratory results as given in the OligoGym collection.
Where “and” joins values, the source holds several entries; their conditions need not be identical. Identical values can stand only once. After the bases stand the sugars from the 5' end (letter, count) and the backbone: PS all phosphorothioate, else s phosphorothioate and o phosphodiester by linkage. Methylation of C is not given here. e = 2'-O-(2-methoxyethyl) (MOE); k = constrained ethyl (cEt); d = 2'-deoxy (DNA)

Tests used:
MALAT1 = conditions: ASO, A431, 0.005 µM
IRF4 = conditions: ASO

Row | Sequence | target mRNA inhibition (MALAT1) | other results
1 | AAAAAAGGCTTAGCGC (sugars k3 d10 k3, PS) | 0% | 
2 | AAAAACTTATCTGCGG (sugars k3 d10 k3, PS) | 49% | 
3 | AAAACGAATTCAGGGT (sugars k3 d10 k3, PS) | 25% | 
4 | AAAACTCCCCCCCGCC (sugars k3 d10 k3, PS) | -4% | 
5 | AAAAGCTTGTTCACCT (sugars k3 d10 k3, PS) | 21% | 
6 | AAACGAATTCAGGGTG (sugars k3 d10 k3, PS) | 23% | 
7 | AAACGGGTCATCAAAC (sugars k3 d10 k3, PS) | 19% | 
8 | AAACTAAATCATTGGG (sugars k3 d10 k3, PS) | 43% | 
9 | AAACTTGCCATCTACT (sugars k3 d10 k3, PS) | -4% | 
10 | AAAGACCTCGACACCA (sugars k3 d10 k3, PS) | 15% | 
11 | AAAGATTTGAGCTGCA (sugars k3 d10 k3, PS) | -4% | 
12 | AAAGCGAGTTCAAGTG (sugars k3 d10 k3, PS) | -12% | 
13 | AAATAAGCACTTATCC (sugars k3 d10 k3, PS) | 18% | 
14 | AAATCGCCATGGAAAG (sugars k3 d10 k3, PS) | 1% | 
15 | AAATGGTAGATTCCGT (sugars k3 d10 k3, PS) | 60% and 62% and 50% | 
16 | AACAATCACTACTCCA (sugars k3 d10 k3, PS) | 26% | 
17 | AACAGCACAGCGGTAC (sugars k3 d10 k3, PS) | 2% | 
18 | AACATAGTTCAACCCA (sugars k3 d10 k3, PS) | 12% | 
19 | AACATTGGCACACAGC (sugars k3 d10 k3, PS) | 54% | 
20 | AACCAGGAGTGCCAAC (sugars k3 d10 k3, PS) | -23% | 
21 | AACCCCCAGTTCAATA (sugars k3 d10 k3, PS) | 20% | 
22 | AACCTGGGCTCCCGGA (sugars k3 d10 k3, PS) | 30% | 
23 | AACTCCCCCATTATAT (sugars k3 d10 k3, PS) | -1% | 

Row | Sequence | target mRNA inhibition (MALAT1) | other results
24 | AACTCCCCCCCGCCTC (sugars k3 d10 k3, PS) | 6% | 
25 | AACTCGCATCACCGGA (sugars k3 d10 k3, PS) | 21% | 
26 | AACTGCTTGCAGTCCT (sugars k3 d10 k3, PS) | 5% | 
27 | AACTGGGAATACTCTT (sugars k3 d10 k3, PS) | 22% | 
28 | AACTTATCTGCGGTTT (sugars k3 d10 k3, PS) | 6% | 
29 | AACTTCAACATTTGGC (sugars k3 d10 k3, PS) | 56% | 
30 | AAGAGATACCTGTCTG (sugars k3 d10 k3, PS) | 22% | 
31 | AAGAGCCAAGCACTCA (sugars k3 d10 k3, PS) | 12% | 
32 | AAGATAGCAGCACAAC (sugars k3 d10 k3, PS) | 12% | 
33 | AAGATATTGTGCTGTT (sugars k3 d10 k3, PS) | 13% | 
34 | AAGCACTCATATGCAA (sugars k3 d10 k3, PS) | -2% | 
35 | AAGCCCTCTCAGCCAC (sugars k3 d10 k3, PS) | 38% | 
36 | AAGGATGTATATAGTT (sugars k3 d10 k3, PS) | 21% | 
37 | AAGGCTCGATGGAAAA (sugars k3 d10 k3, PS) | 7% | 
38 | AAGGCTTCAGTCCCCT (sugars k3 d10 k3, PS) | 14% | 
39 | AAGTAAGCCCCACCCC (sugars k3 d10 k3, PS) | 37% | 
40 | AAGTAGTTCTTCGGTT (sugars k3 d10 k3, PS) | 10% | 
41 | AAGTCAAGCTCCTGAC (sugars k3 d10 k3, PS) | 4% | 
42 | AAGTTGGTAATTACTC (sugars k3 d10 k3, PS) | 22% | 
43 | AAGTTTTCAGCAGTAG (sugars k3 d10 k3, PS) | 8% | 
44 | AATACTCTTCCAAGGA (sugars k3 d10 k3, PS) | 15% | 
45 | AATAGCAGCGGGATCA (sugars k3 d10 k3, PS) | 34% | 
46 | AATATTTGCCCCTCCC (sugars k3 d10 k3, PS) | 15% | 

Row | Sequence | target mRNA inhibition (MALAT1) | other results
47 | AATCGGAGCAGCACGG (sugars k3 d10 k3, PS) | 26% | 
48 | AATGCATTCTAATAGC (sugars k3 d10 k3, PS) | 17% | 
49 | AATGGCGGACTTTCTC (sugars k3 d10 k3, PS) | 0% | 
50 | AATTAAATTGATGGGC (sugars k3 d10 k3, PS) | 17% | 
51 | AATTCACCAAGGAGCT (sugars k3 d10 k3, PS) | 35% | 
52 | AATTGTAGTTAATGTC (sugars k3 d10 k3, PS) | 36% | 
53 | AATTTATAGACCCCTG (sugars k3 d10 k3, PS) | 4% | 
54 | AATTTCCTTAGTTGGC (sugars k3 d10 k3, PS) | 68% and 93% | 
55 | AATTTTGAGTATGCTG (sugars k3 d10 k3, PS) | 54% and 71% | 
56 | ACAACATATTGCCGAC (sugars k3 d10 k3, PS) | 10% | 
57 | ACAAGATTCATGAGTA (sugars k3 d10 k3, PS) | 27% | 
58 | ACAAGGATCCAAGCTA (sugars k3 d10 k3, PS) | -7% | 
59 | ACAAGTCCTACAATTT (sugars k3 d10 k3, PS) | 31% | 
60 | ACACACTACCATATCC (sugars k3 d10 k3, PS) | -3% | 
61 | ACACTGGTTCCTGGAA (sugars k3 d10 k3, PS) | 48% | 
62 | ACAGAGCTGCTCCCCG (sugars k3 d10 k3, PS) | 18% | 
63 | ACAGCGGTACACTCCT (sugars k3 d10 k3, PS) | 42% | 
64 | ACAGGAACAAGTCCTA (sugars k3 d10 k3, PS) | 10% | 
65 | ACATAGTTCAACCCAC (sugars k3 d10 k3, PS) | 18% | 
66 | ACATGCAATACTGCAG (sugars k3 d10 k3, PS) | 3% | 
67 | ACATTCAAGCTGAACT (sugars k3 d10 k3, PS) | -5% | 
68 | ACATTTGGCCTACTCA (sugars k3 d10 k3, PS) | 46% | 
69 | ACCAACCCCCAGTTCA (sugars k3 d10 k3, PS) | 28% | 

Row | Sequence | target mRNA inhibition (MALAT1) | other results
70 | ACCCAAAAGCCCTCTC (sugars k3 d10 k3, PS) | 13% | 
71 | ACCCACAAACTTGCCA (sugars k3 d10 k3, PS) | -2% | 
72 | ACCCAGAAGTGTTTAC (sugars k3 d10 k3, PS) | 16% | 
73 | TTATGGACCACGCAGC (sugars k3 d10 k3, PS) |  | target mRNA inhibition (IRF4; SK-MEL-28, 4 µM): 31%
74 | TTATGTTAGCCAATTC (sugars kkdddddddddkekek, PS) |  | target mRNA inhibition (IRF4; MM.1R, 1 µM): 11% and 19%
75 | TTATTAAGTCAATCAC (sugars k3 d10 k3, PS) |  | target mRNA inhibition (IRF4; SK-MEL-28, 4 µM): -1%
76 | TTCAACAGCACTGTCC (sugars k3 d10 k3, PS) |  | target mRNA inhibition (IRF4; SK-MEL-28, 4 µM): 65%
77 | TTCACACTGCCGTGAT (sugars k3 d10 k3, PS) |  | target mRNA inhibition (IRF4; MM.1R, 1 µM): -12%
78 | TTCACGCACCATTCAG (sugars k3 d10 k3, PS) |  | target mRNA inhibition (IRF4; SK-MEL-28, 4 µM): 16%
79 | TTCAGACAGATGCAGC (sugars k3 d10 k3, PS) |  | target mRNA inhibition (IRF4; SK-MEL-28, 4 µM): 62%
80 | TTCAGTTGTAAATGAG (sugars k3 d10 k3, PS) |  | target mRNA inhibition (IRF4; SK-MEL-28, 4 µM): 56%
81 | TTCATGTAAAGTCTGC (sugars k3 d10 k3, PS) |  | target mRNA inhibition (IRF4; MM.1R, 1 µM): 57% and 55%
82 | TTCCAACAGGCGGACA (sugars k3 d10 k3, PS) |  | target mRNA inhibition (IRF4; SK-MEL-28, 4 µM): 43%
83 | TTCCAACCTTTATGAT (sugars k3 d10 k3, PS) |  | target mRNA inhibition (IRF4; SK-MEL-28, 4 µM): 7%
84 | TTCCAGCAAGACCTAA (sugars k3 d10 k3, PS) |  | target mRNA inhibition (IRF4; SK-MEL-28, 4 µM): 27%
85 | TTCCATGCTTGTCTCG (sugars k3 d10 k3, PS) |  | target mRNA inhibition (IRF4; SK-MEL-28, 4 µM): 62%
86 | TTCCGGGTGTGGCTGA (sugars k3 d10 k3, PS) |  | target mRNA inhibition (IRF4; MM.1R, 1 µM): 25%
87 | TTGAAAGATTCAGCCT (sugars k3 d10 k3, PS) |  | target mRNA inhibition (IRF4; SK-MEL-28, 4 µM): 3%
88 | TTGAAATAAGCTCATC (sugars k3 d10 k3, PS) |  | target mRNA inhibition (IRF4; SK-MEL-28, 4 µM): 33%
89 | TTGAAATGGAGCATCC (sugars k3 d10 k3, PS) |  | target mRNA inhibition (IRF4; SK-MEL-28, 4 µM): 22%
90 | TTGAATAGAGGAATGG (sugars k3 d10 k3, PS) |  | target mRNA inhibition (IRF4; SK-MEL-28, 4 µM): 42%
91 | TTGATAAAGGCTGAAC (sugars k3 d10 k3, PS) |  | target mRNA inhibition (IRF4; SK-MEL-28, 4 µM): 67%
92 | TTGATGTGATAGCTGA (sugars kddddddddddkekek, PS) |  | target mRNA inhibition (IRF4; MM.1R, 1 µM): 12%

Row | Sequence | target mRNA inhibition (MALAT1) | other results
93 | TTGATGTGATAGCTGA (sugars kdddddddddkekeke, PS) |  | target mRNA inhibition (IRF4; MM.1R, 1 µM): 34%
94 | TTGATGTGATAGCTGA (sugars kkdddddddddekeke, PS) |  | target mRNA inhibition (IRF4; MM.1R, 1 µM): 28%
95 | TTGCATCCATGTCAAC (sugars k3 d10 k3, PS) |  | target mRNA inhibition (IRF4; SK-MEL-28, 4 µM): 47%
96 | TTGCCTTCGCTCACTC (sugars k3 d10 k3, PS) |  | target mRNA inhibition (IRF4; SK-MEL-28, 4 µM): 22%
97 | TTGCTAGATTCTCCCT (sugars k3 d10 k3, PS) |  | target mRNA inhibition (IRF4; MM.1R, 1 µM): 16%
98 | TTGCTCTTGTTCAAAG (sugars k3 d10 k3, PS) |  | target mRNA inhibition (IRF4; SK-MEL-28, 4 µM): 29%
99 | TTGGAAAGACAAGTGC (sugars k3 d10 k3, PS) |  | target mRNA inhibition (IRF4; SK-MEL-28, 4 µM): 15%
100 | TTGGTTGGCTGGTCTT (sugars kdddddddddkekeke, PS) |  | target mRNA inhibition (IRF4; MM.1R, 1 µM): -7%
101 | TTGGTTGGCTGGTCTT (sugars kkdddddddddkdkdk, PS) |  | target mRNA inhibition (IRF4; MM.1R, 1 µM): 55%
102 | TTGTCATGGTGTAGGG (sugars k3 d10 k3, PS) |  | target mRNA inhibition (IRF4; SK-MEL-28, 4 µM): 41%
103 | TTGTGAAGCATCCTTT (sugars k3 d10 k3, PS) |  | target mRNA inhibition (IRF4; SK-MEL-28, 4 µM): 63%
104 | TTGTGGACACTTTTAG (sugars k3 d10 k3, PS) |  | target mRNA inhibition (IRF4; SK-MEL-28, 4 µM): 49%
105 | TTTACACCGTTGCTCA (sugars k3 d10 k3, PS) |  | target mRNA inhibition (IRF4; MM.1R, 1 µM): 3%
106 | TTTATATATGACGACT (sugars k3 d10 k3, PS) |  | target mRNA inhibition (IRF4; SK-MEL-28, 4 µM): 39%
107 | TTTATGGACCACGCAG (sugars k3 d10 k3, PS) |  | target mRNA inhibition (IRF4; SK-MEL-28, 4 µM): 38%
108 | TTTGAAGCAACACGGG (sugars k3 d10 k3, PS) |  | target mRNA inhibition (IRF4; SK-MEL-28, 4 µM): 47%
109 | TTTTAGTGTTACTTGC (sugars k3 d10 k3, PS) |  | target mRNA inhibition (IRF4; SK-MEL-28, 4 µM): 32%
110 | TTTTATATATGACGAC (sugars k3 d10 k3, PS) |  | target mRNA inhibition (IRF4; SK-MEL-28, 4 µM): 34%
111 | TTTTATGGACCACGCA (sugars k3 d10 k3, PS) |  | target mRNA inhibition (IRF4; SK-MEL-28, 4 µM): 31%
112 | TTTTGGCTCCCTCAGG (sugars k3 d10 k3, PS) |  | target mRNA inhibition (IRF4; MM.1R, 1 µM): -3%
